Results as given in patent US20240327372A1, “PREPARATION OF PHENE[…] […] STEREOISOMERS THEREOF AND PRECURSORS THEREOF” (priority 2022, published 2024).

Tests used:
[1] = molecular target: norepinephrine transporter (NET); assay: Competition radioligand binding, [3H]Nisoxetine, rat brain membranes; conditions: for IC50 / Ki: NE transporter; for Ki: Cheng-Prusoff
From the text: Rat brain (Sprague Dawley, 200-250 g) synaptosomes were isolated from midbrain and hindbrain for serotonin transporter assays, striatum for dopamine transporter assays, and hippocampus plus overlying occipital cortex for norepinephrine transporter assays. Radioligands used were: [^3H]Citalopram 81.4 Ci/mmol (PerkinElmer NET1039250UC; Lot No. 2960876). [^3H]WIN35428 82.8 Ci/mmol (PerkinElmer NET1033250UC; Lot No. 2891473). [^3H]Nisoxetine 79.2 Ci/mmol (PerkinElmer NET1084250UC; Lot No. 2970324). Non-specific compounds used were: Citalopram (Tocris Bioscience 1427). JHW007 (Tocris Bioscience 4351). Nomifensine (Abcam ab146004). Test Compounds for the study were: racemic methylone HCl; (R)-methylone HCl; (S)-methylone HCl.
For membrane preparations, rat brains were dissected, tissue was added to ice-cold lysis buffer (50 mM Tris HCl; 5 mM MgCl2; 5 mM EDTA; protease inhibitor cocktail) and homogenized. The homogenate was centrifuged at 100×g for 2 minutes and the supernatant divided into polypropylene Eppendorf tubes. The supernatants were centrifuged at 17,000×g for 10 minutes at 4° C. to re-pellet the cell lysate. The pellet was resuspended in fresh wash buffer (50 mM Tris-HCl; 5 mM MgCl2; 5 mM EDTA) and centrifuged a third time at 17,000×g for 10 minutes at 4° C. The pellet was resuspended in wash buffer containing 10% sucrose as a cryoprotectant, divided into aliquots (0.3 mL) and stored at −80° C. A sample of the homogenate was analyzed for protein content using the MERCK® BCA assay. On the day of the assay, the membrane preparation was thawed and the pellet resuspended in final assay buffer.
Competition binding assays were carried out in 96-well polypropylene plates in a final volume of 250 μL per well. To each well was added 150 μL membranes, 50 μL of test compound, non-specific compound or buffer, and 50 μL radioligand solution in buffer. The plate was incubated at 30° C. for 90 minutes with gentle agitation. The incubation was stopped by vacuum filtration onto presoaked (wash buffer with PEI) GF/C filters using a 96-well FILTERMATE™ harvester, followed by 5 washes with ice-cold wash buffer. Filters were then dried under a warm air stream, sealed in polyethylene, scintillation cocktail added, and the radioactivity counted in a WALLAC® TriLux 1450 MicroBeta counter. For each concentration of drug, non-specific binding was subtracted from total binding to give specific binding. Data was fitted using the non-linear curve fitting routines in PRISM® (Graphpad Software Inc) to determine IC50. Ki was subsequently calculated using the ChengPrusoff equation.

DAT = DAT (Rattus norvegicus (Rat), UniProt P23977); assay: [3H]Dopamine uptake inhibition in rat brain synaptosomes; assay type: biochemical; conditions: DA
Experimental: Materials used were: Neurotransmitters [3H]5-HT (PerkinElmer, NET498001MC) [^3H]Dopamine (PerkinElmer, NET673250UC) [^3H]Norepinephrine (PerkinElmer, NET377250UC); Test Compounds Racemic methylone HCl (Merck, M-140); (R)-methylone HCl (Pisgah Labs); (S)-methylone HCl (Pisgah Labs); Reference Compounds Citalopram (Tocris Bioscience 1427). JHW007 (Tocris Bioscience 4351). Nomifensine (Abcam ab146004).
Synaptosomes were prepared from Sprague Dawley (200-250 g) rat brain regions (hippocampus for NE, striatum for DA and midbrain for 5-HT) using standard protocols. Tissues were dissected, added to sucrose buffer (0.32 M), homogenized with a dounce-homogenizer and centrifuged at 100×g to remove cells and debris. Supernatant was collected and centrifuged 17,000×g for 10 minutes at 4° C. to pellet the synaptosomes. The pellet was resuspended in fresh assay buffer.
Uptake assays were carried out in 96-well plates in a final volume of 250 μL per well. To each well was added 150 μL synaptosomes, 50 μL test, non-specific compound or buffer alone. The plate was incubated at 30° C. for 30 minutes with gentle agitation. 50 μL radiolabeled neurotransmitter in buffer was then added to each well to initiate the uptake. The plate was incubated at 30° C. for a further 5 minutes with gentle agitation. The incubation was stopped by vacuum filtration onto presoaked GF/C filters using a 96-well FilterMate™ harvester, followed by 3 washes with ice-cold wash buffer. Filters were then dried under a warm air stream, sealed in polyethylene, scintillation cocktail added, and the radioactivity counted in a Wallac® TriLux 1450 MicroBeta counter.
For each concentration of drug, non-specific uptake was subtracted from total uptake to give specific uptake. Data was fitted using the non-linear curve fitting routines in Prism® (Graphpad Software Inc) to determine IC50.

hKv4.3/hKChIP2 = hKv4.3/hKChIP2 (Homo sapiens (Human), UniProt Q9UK17); assay: hKv4.3/hKChIP2 Potassium Channel Assay, Qube APC; assay type: cell-based; conditions: Kc4.3/ChIP2, Antagonist mode, test compound
Experimental: (§1) Electrophysiological assays were conducted to profile three compounds ((R)-methylone, (S)-methylone, or racemic methylone) for activities on the ion channel targets specified below using the Qube electrophysiological platform. Where presented, IC50 values were determined by a non-linear, least squares regression analysis. Reference standards were run as an integral part of each assay to ensure the validity of the results obtained.
(§2) Ion Channels tested were Eurofins Panel Part Number: CPROFullQB2DR Voltage-Gated Sodium: HEK-Nav1.5 (Peak), HEK-Nav1.5 (Late, Antagonist) Voltage-Gated Potassium: HEK-Kv4.3/KChIP2, CHO-hERG, CHO-KCNQ1/minK Voltage-Gated Calcium: HEK-Cav1.2 Inward-Rectifying Voltage-Gated Potassium: HEK-Kir2.1.
hKv4.3/hKChIP2 Potassium Channel Assay—Qube APC After whole cell configuration is achieved, the cells are held at −80 mV. Onset and steady state block of hKv4.3 current is measured using a pulse pattern from −80 mV to 40 mV amplitude for a 110 ms duration, and finally a 100 ms ramp (1.2 V/s) to −80 mV. This paradigm is delivered once every 5 s to monitor the current amplitude.

hNav1.5 Late Current = hNav1.5 Late Current (Homo sapiens (Human), UniProt Q14524); assay: hNav1.5 Late Current Sodium Channel Assay, Qube APC; assay type: cell-based; conditions: Nav1.5 Late Current, Antagonist mode, test compound
Experimental: as §1, §2
hNav1.5 Late Current Sodium Channel Assay—Qube APC Onset and steady state block of Late Nav1.5 current is measured using a pulse pattern, repeated every 5 sec, consisting of a hyperpolarizing pulse to −120 mV for a 200 ms duration, depolarization to −15 mV amplitude for a 40 ms duration, followed by step to 40 mV for 200 ms and finally a 100 ms ramp (1.2 V/s) to a holding potential of −80 mV. Late current is measured as charge current elicited during the ramp with 50 nM ATXII.

cardiac ion channels = assay: In vitro cardiovascular safety screening test (ion channel panel, overall); assay type: cell-based, human; conditions: whole panel
Experimental: An in vitro cardiovascular safety screening test was run to investigate the effects of racemic methylone and two methylone stereoisomers ((R)-methylone and (S)-methylone) on selected ion channels critically linked to cardiovascular function and activity.
as §1, §2

SERT = SERT (Rattus norvegicus (Rat), UniProt P31652); assay: 5-HT release study; assay type: biochemical

Chain of hKv4.3/hKChIP2 (Q9UK17 whole entry, looked up): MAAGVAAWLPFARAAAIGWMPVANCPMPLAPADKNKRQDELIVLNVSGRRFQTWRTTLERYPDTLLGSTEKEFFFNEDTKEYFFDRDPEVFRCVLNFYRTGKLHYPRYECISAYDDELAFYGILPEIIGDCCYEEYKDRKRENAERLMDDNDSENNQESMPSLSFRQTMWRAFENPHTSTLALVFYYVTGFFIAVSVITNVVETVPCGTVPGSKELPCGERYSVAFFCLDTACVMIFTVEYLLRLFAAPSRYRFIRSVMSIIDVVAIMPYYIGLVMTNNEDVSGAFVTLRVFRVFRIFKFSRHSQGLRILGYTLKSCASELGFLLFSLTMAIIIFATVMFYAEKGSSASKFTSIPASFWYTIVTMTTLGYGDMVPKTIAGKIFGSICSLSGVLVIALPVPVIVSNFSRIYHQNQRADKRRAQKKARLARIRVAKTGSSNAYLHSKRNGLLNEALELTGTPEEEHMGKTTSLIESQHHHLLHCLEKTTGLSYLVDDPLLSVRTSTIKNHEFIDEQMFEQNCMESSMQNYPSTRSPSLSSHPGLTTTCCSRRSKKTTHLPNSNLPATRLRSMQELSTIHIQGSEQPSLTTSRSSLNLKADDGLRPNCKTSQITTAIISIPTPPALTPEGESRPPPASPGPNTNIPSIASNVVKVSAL
Chain of hKv4.3/hKChIP2 (Q9NS61 whole entry partner, looked up): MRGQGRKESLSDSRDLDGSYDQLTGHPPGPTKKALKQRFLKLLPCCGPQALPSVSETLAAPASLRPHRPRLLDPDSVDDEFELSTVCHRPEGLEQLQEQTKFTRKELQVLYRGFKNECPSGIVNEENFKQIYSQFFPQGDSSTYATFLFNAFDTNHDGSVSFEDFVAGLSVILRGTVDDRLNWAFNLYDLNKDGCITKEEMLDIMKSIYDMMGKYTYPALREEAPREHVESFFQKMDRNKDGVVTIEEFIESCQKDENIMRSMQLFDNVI

Structure (SMILES)	IC50 [1]	Ki [1]	IC50 (DAT)	Estimated IC50 (hKv4.3/hKChIP2)	Estimated IC50 (hNav1.5 Late Current)	Effect on the cardiac ion channels tested (cardiac ion channels)	Potency relative to racemic methylone ([1]; NET binding)	EC50 (SERT)
CN[C@H](C)C(=O)c1ccc2c(c1)OCO2 [(R)-methylone]	4.67 µM	2.19 µM	3.44 µM	N/C (N/C indicates observed mean inhibition was <25%)	N/C (N/C indicates observed mean inhibition was <25%)	do not directly inhibit the activity of cardiac channels		
CN[C@@H](C)C(=O)c1ccc2c(c1)OCO2 [(S)-methylone]	7.12 µM	3.37 µM	0.634 µM	N/C (N/C indicates observed mean inhibition was <25%)	N/C (N/C indicates observed mean inhibition was <25%)	do not directly inhibit the activity of cardiac channels	nearly two-fold less potent	1.18 µM
